Measured values as given in ChEMBL document CHEMBL1139649, “Hetaryl imidazoles: a novel dual inhibitors of VEGF receptors I and II” (Bioorg Med Chem Lett, 2006).

Assays:
[1] = Solubility in water; type: physicochemical
[2] = biological target: T1, Vascular endothelial growth factor receptor 2 (Homo sapiens, UniProt P35968); experiment: Inhibition of VEGFR2 by enzymatic assay
[3] = biological target: Insulin-like growth factor 1 receptor (Homo sapiens) (UniProt P08069); experiment: […] against IGF1R at 10 uM by HTRF method
[4] = biological target: Fibroblast growth factor receptor 1 (Homo sapiens) (UniProt P11362); experiment: Percent inhibition against FGFR1 at 10 uM by HTRF method; design: scale not given: the % may be the effect or the level left
[5] = biological target: Receptor-type tyrosine-protein kinase FLT3 (Homo sapiens) (UniProt P36888); experiment: Inhibition of Flt3 at 10 uM by HTRF method; design: scale not given: the % may be the effect or the level left
[6] = biological target: T2, Ephrin type-B receptor 4 (Homo sapiens) (UniProt P54760); experiment: Percent inhibition against EphB4 at 10 uM by HTRF method; design: scale not given: the % may be the effect or the level left
T2 sequence (whole entry): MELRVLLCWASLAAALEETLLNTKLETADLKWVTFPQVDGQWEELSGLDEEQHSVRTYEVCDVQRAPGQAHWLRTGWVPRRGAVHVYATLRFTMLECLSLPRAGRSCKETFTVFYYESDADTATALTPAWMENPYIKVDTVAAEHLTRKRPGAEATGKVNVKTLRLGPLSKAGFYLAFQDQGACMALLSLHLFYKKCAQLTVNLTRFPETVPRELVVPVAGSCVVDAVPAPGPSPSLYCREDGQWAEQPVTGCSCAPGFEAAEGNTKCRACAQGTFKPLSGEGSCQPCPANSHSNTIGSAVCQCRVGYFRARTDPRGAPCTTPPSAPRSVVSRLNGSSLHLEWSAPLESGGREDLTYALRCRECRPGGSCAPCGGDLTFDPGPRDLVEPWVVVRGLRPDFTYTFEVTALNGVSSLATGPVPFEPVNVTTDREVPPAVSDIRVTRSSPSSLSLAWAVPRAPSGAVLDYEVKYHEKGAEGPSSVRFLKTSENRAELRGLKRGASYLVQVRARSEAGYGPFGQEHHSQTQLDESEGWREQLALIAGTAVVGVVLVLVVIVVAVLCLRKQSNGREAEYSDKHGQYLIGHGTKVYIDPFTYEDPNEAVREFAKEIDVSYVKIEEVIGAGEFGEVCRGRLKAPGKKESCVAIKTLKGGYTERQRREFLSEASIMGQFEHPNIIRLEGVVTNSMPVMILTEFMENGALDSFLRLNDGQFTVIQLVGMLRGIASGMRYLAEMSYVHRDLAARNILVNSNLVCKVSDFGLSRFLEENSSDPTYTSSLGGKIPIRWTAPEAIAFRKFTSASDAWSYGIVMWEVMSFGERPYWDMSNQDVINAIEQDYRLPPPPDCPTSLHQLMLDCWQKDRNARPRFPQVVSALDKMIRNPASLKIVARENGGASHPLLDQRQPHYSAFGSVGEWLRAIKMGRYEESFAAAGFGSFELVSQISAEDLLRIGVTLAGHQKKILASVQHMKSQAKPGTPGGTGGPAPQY

[7] = biological target: Cyclin-dependent kinase 2 (Homo sapiens) (UniProt P24941); experiment: […] against Cdk2 at 10 uM by HTRF method
[8] = biological target: Hepatocyte growth factor receptor (Homo sapiens) (UniProt P08581); experiment: Percent inhibition against c-Met at 10 uM by HTRF method; design: scale not given: the % may be the effect or the level left
[9] = biological target: Cyclin-dependent kinase 5 (Homo sapiens) (UniProt Q00535); experiment: […] against Cdk5 at 10 uM by HTRF method
[10] = biological target: Glycogen synthase kinase-3 beta (Homo sapiens) (UniProt P49841); experiment: Inhibition against GSK3-beta at 10 uM by HTRF method; design: scale not given: the % may be the effect or the level left
[11] = biological target: Epidermal growth factor receptor (Homo sapiens) (UniProt P00533); experiment: […] against ErbB1 at 10 uM by HTRF method
[12] = biological target: Receptor tyrosine-protein kinase erbB-2 (Homo sapiens) (UniProt P04626); experiment: […] against ErbB2 at 10 uM by HTRF method
[13] = biological target: RAC-alpha serine/threonine-protein kinase (Homo sapiens) (UniProt P31749); experiment: […] against PKB/Akt at 10 uM by HTRF method
[14] = biological target: T1, Vascular endothelial growth factor receptor 2; experiment: Inhibition of VEGFR2 in 293 adenovirus transfected kidney cells by cell-based ELISA assay
[15] = biological target: Bcr/Abl fusion protein (Homo sapiens) (UniProt P00519+P11274); experiment: Inhibition of bcr-Abl at 10 uM by HTRF method; type: protein assay; design: scale not given: the % may be the effect or the level left
[16] = biological target: Vascular endothelial growth factor receptor 1 (Homo sapiens, UniProt P17948); experiment: Inhibition of VEGFR1 by enzymatic assay
[17] = biological target: cAMP-dependent protein kinase (PKA) (Homo sapiens) (UniProt P22694+P17612+P22612); experiment: Inhibition against PKA at 10 uM by HTRF method; type: protein assay; design: scale not given: the % may be the effect or the level left

T1 sequence (P35968 whole entry): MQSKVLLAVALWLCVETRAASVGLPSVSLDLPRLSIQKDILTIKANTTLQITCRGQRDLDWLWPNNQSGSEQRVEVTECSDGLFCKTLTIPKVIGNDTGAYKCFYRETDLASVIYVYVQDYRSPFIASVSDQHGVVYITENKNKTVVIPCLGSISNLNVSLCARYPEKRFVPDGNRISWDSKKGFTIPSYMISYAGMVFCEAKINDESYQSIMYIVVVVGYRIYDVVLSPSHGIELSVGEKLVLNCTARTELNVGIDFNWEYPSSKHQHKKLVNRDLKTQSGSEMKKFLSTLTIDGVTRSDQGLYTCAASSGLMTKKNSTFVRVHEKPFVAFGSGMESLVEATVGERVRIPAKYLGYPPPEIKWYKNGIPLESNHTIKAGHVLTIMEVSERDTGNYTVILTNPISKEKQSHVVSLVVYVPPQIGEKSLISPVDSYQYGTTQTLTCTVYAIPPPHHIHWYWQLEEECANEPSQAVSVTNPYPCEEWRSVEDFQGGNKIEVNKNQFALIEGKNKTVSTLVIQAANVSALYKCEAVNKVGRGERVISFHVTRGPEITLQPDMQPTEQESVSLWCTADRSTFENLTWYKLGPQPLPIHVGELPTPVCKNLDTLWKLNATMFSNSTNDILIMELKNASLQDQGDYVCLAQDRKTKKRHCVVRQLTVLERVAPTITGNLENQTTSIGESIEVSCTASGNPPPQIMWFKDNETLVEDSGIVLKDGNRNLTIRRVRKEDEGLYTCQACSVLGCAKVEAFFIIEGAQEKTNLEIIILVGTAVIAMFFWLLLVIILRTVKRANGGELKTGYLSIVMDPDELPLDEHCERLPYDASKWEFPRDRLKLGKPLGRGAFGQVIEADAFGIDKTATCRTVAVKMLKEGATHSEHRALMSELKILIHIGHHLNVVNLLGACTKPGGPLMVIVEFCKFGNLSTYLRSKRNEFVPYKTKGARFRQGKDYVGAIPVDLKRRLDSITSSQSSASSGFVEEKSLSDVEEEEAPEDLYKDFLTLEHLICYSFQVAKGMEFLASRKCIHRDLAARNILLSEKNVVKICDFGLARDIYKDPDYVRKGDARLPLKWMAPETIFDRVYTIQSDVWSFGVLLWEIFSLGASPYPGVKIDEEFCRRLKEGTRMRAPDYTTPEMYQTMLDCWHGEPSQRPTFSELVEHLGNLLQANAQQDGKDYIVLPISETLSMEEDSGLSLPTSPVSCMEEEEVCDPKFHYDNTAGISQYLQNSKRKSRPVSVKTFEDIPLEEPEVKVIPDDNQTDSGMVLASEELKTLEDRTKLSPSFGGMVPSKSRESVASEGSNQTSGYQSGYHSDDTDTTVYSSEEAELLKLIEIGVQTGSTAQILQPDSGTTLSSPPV
RAC-alpha serine/threonine-protein kinase (Homo sapiens), sequence (P31749 whole entry): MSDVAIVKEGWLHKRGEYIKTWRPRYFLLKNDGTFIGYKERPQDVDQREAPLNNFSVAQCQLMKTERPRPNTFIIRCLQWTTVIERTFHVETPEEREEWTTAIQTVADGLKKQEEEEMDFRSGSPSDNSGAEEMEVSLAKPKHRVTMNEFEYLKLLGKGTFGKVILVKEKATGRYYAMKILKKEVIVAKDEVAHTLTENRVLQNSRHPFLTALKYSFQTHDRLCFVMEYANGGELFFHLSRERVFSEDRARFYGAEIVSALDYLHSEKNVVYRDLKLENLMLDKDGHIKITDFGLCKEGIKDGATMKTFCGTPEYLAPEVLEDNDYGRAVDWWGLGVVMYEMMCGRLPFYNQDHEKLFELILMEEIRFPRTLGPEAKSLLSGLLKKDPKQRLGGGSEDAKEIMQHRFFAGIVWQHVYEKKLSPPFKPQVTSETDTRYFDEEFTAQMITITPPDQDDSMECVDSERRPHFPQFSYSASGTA
Receptor-type tyrosine-protein kinase FLT3 (Homo sapiens), sequence (P36888 whole entry): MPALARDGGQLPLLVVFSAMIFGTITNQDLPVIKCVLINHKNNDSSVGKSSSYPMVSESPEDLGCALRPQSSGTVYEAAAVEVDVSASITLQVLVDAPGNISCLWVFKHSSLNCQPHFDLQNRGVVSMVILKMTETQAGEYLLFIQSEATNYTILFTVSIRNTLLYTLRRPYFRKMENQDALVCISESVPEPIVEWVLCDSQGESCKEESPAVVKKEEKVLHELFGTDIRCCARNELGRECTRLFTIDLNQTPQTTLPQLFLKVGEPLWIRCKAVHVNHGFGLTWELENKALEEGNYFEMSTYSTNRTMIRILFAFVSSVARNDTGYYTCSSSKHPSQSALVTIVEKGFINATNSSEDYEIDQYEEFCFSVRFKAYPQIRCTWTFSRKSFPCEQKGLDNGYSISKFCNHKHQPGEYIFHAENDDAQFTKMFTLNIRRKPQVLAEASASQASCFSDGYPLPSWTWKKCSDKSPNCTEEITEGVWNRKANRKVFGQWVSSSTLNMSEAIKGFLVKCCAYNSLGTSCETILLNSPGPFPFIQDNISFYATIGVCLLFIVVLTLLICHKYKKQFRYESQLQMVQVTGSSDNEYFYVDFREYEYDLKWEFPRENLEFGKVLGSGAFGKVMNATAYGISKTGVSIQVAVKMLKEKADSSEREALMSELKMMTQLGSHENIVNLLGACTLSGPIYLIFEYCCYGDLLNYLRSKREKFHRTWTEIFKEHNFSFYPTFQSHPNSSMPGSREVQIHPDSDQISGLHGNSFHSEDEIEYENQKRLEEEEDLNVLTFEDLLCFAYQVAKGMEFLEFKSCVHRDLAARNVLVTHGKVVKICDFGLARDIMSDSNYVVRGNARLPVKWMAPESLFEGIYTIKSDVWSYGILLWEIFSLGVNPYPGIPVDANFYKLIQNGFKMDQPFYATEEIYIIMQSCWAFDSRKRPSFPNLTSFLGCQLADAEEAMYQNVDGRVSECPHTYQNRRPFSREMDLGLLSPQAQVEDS
Insulin-like growth factor 1 receptor (Homo sapiens), sequence (P08069 31-736 limits assumed): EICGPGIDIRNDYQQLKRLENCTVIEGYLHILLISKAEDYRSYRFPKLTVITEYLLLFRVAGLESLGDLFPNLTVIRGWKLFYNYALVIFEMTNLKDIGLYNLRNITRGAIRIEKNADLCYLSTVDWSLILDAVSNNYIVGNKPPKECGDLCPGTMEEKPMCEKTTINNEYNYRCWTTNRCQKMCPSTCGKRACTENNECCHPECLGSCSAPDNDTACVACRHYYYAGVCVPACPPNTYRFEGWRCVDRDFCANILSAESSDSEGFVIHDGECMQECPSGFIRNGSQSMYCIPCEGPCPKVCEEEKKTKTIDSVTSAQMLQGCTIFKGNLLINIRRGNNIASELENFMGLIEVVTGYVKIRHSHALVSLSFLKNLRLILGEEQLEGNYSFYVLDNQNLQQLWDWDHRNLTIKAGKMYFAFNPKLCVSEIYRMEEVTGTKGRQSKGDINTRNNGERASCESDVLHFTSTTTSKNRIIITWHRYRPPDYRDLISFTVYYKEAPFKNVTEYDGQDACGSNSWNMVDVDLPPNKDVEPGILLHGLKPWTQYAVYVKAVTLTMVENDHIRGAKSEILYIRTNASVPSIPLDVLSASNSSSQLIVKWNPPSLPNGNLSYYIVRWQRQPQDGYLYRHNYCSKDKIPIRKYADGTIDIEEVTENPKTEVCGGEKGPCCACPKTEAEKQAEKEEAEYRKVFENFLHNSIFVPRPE
Insulin-like growth factor 1 receptor (Homo sapiens), sequence (P08069 741-1367 limits assumed): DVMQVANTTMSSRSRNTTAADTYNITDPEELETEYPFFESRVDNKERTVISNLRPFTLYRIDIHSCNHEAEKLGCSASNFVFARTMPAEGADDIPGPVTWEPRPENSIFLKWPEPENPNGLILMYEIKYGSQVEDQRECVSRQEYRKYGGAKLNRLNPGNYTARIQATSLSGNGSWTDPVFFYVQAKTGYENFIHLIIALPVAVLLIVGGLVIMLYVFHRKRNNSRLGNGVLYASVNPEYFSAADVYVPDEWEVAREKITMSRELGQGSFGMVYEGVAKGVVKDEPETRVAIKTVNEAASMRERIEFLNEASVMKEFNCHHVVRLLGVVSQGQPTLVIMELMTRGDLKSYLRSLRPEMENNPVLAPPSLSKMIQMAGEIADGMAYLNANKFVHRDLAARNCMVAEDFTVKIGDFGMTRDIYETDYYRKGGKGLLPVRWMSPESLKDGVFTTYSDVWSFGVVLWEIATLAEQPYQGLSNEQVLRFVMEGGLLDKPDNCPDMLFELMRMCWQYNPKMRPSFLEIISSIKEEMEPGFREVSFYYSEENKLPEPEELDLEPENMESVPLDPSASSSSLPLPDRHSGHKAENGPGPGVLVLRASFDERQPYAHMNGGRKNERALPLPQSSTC
Fibroblast growth factor receptor 1 (Homo sapiens), sequence (P11362 22-822 limits assumed): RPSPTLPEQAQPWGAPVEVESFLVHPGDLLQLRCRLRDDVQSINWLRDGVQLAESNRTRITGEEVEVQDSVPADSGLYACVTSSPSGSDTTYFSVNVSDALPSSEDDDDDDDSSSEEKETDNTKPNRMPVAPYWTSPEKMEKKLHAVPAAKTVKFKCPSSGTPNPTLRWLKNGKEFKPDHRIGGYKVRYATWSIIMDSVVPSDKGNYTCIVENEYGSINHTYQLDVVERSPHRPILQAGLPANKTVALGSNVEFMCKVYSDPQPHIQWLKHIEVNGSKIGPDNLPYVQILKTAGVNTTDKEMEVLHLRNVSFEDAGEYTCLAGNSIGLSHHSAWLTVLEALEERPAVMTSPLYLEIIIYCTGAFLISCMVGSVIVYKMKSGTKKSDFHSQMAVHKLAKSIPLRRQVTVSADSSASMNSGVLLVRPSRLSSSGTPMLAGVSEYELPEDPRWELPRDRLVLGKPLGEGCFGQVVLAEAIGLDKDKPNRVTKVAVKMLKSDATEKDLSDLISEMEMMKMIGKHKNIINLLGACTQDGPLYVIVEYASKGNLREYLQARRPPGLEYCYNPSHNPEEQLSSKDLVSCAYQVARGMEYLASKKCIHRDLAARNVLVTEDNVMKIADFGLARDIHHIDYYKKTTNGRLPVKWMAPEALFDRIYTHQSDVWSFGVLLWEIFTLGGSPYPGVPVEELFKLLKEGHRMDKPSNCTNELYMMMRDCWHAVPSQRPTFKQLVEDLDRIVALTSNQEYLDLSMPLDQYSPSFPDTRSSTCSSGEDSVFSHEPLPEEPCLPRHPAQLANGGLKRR

Row | SMILES | solubility [1] [mM] | IC50 [2] [nM] | Activity [3] [%] | Activity [4] [%] | Activity [5] [%] | Activity [6] [%] | Percent inhibition [7] [%] | Activity [8] [%] | Activity [9] [%] | Activity [10] [%] | Percent inhibition [11] [%] | Activity [12] [%] | Activity [13] [%] | IC50 [14] [nM] | Activity [15] [%] | IC50 [16] [nM] | Activity [17] [%]
1 | Cn1cnc(NCc2ccncc2)c1-c1nnc(Nc2ccc(OC(F)(F)F)cc2)o1 | > 5 | 93 | < 30 | < 30 | < 30 | < 30 | < 30 | < 30 | < 30 | < 30 | < 30 | < 30 | < 30 | 66 | < 30 | 160 | < 30
2 | Cn1cnc(NCc2ccncc2)c1-c1nnc(Nc2ccc(OC(F)(F)Cl)cc2)o1 | > 5 | 130 | < 30 | < 30 | < 30 | < 30 | < 30 | < 30 | < 30 | < 30 | < 30 | < 30 | < 30 | 96 | < 30 | 460 | < 30
3 | COc1cccc(Nc2nnc(-c3c(NCc4ccncc4)ncn3C)o2)c1 | > 5 | 130 | < 30 | < 30 | < 30 | < 30 | < 30 | < 30 | < 30 | < 30 | < 30 | < 30 | < 30 | 64 | < 30 | 670 | < 30
4 | COc1ccc(Nc2nnc(-c3c(NCc4ccncc4)ncn3C)o2)cc1OC | > 5 | 52 | < 30 | < 30 | < 30 | < 30 | < 30 | < 30 | < 30 | < 30 | < 30 | < 30 | < 30 | 93 | < 30 | 590 | < 30
5 | Cn1cnc(NCc2ccncc2)c1-c1nnc(Nc2ccc(C(F)(F)F)cc2)o1 | > 5 | 73 | < 30 | < 30 | < 30 | < 30 | < 30 | < 30 | < 30 | < 30 | < 30 | < 30 | < 30 | 82 | < 30 | 120 | < 30
